Counter-ions that a name gives are not always drawn. Like-named read-outs stand apart in the source and are kept apart here.
Assays:
[1] = tested on: HT-1197 cells; assay: Cell-based assay: anti-proliferative activity, Cell Counting Kit-8, 72 hours (HT-1197, negative control without MELK expression); settings: HT1197 cells, no MELK expression (negative control), Cell Counting Kit-8 at 72 hours
Method in brief: (§1)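 Proliferation read with Cell Counting Kit-8 after 72 hours of inhibitor treatment, from seeding of 2,000–3,000 cells/well. Lines: T47D, A549, BT-549; HT-1197, lacking MELK by western blot, served as negative control. IC50 derived.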

[2] = tested on: T47D cells; assay: Cell-based assay: anti-proliferative activity, Cell Counting Kit-8, 72 hours (T47D); settings: MELK-expressing, Cell Counting Kit-8 at 72 hours
Method in brief: as §1

[3] = molecular target: MELK (Homo sapiens, UniProt Q14680); assay: Kinase assay: MELK activity, phosphorylation of FITC-labeled histone H3 peptide measured by IMAP fluorescence polarization; type: biochemical; settings: 50 micro-M ATP, FITC-labeled histone H3 peptide substrate, IMAP fluorescence polarization, read-out: IC50 (μM) (kinase assay)
Sequence of MELK (Q14680 whole entry, looked up): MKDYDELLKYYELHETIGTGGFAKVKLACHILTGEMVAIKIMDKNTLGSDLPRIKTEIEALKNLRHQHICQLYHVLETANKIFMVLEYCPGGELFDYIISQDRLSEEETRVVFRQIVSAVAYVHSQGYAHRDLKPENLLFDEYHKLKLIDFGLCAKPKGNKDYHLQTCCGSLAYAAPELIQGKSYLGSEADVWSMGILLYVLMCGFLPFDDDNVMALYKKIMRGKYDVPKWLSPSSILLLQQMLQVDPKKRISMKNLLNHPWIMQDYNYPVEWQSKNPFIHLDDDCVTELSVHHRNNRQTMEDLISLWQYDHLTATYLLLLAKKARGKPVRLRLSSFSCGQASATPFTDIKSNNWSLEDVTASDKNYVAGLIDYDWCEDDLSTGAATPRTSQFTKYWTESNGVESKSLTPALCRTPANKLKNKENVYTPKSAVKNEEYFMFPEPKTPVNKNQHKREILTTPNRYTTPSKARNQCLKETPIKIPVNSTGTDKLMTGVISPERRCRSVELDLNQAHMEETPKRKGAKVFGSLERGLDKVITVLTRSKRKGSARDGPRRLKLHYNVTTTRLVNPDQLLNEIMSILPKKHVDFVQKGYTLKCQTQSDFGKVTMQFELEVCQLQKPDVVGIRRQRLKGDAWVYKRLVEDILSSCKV
Method in brief: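 Fluorescence polarization was measured 0.5 h (room temperature) after quenching with threefold volume of progressive binding solution. Test compounds from 12.5 mM DMSO stocks were assayed at 1% DMSO.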

[4] = tested on: A549 cells; assay: Cell-based assay: anti-proliferative activity, Cell Counting Kit-8, 72 hours (A549); settings: MELK-expressing, Cell Counting Kit-8 at 72 hours
Method in brief: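 Cell Counting Kit-8 read-out of A549 growth after 72 hours of inhibitor exposure, cells plated in 96-well format. Values reported as IC50.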

[5] = tested on: BT-549 cells; assay: Cell-based assay: anti-proliferative activity, Cell Counting Kit-8, 72 hours (BT-549); settings: BT549 cells, MELK-expressing, Cell Counting Kit-8 at 72 hours
Method in brief: as §1

## CCN(CC)C1CCC(Nc2c(C(=O)C3CC3)cnc3ccc(-c4ccc(O)c(OC)c4)cc23)CC1 (centres unmarked) [Example 193, Cyclopropyl{4-[4-(diethylamino)cyclohexylamino]-6-(4-hydroxy-3-methoxyphenyl)quinolin-3-yl}methanone]
[1]; Homo sapiens, HT1197, 72 h
  IC50: 4.2 µM
[2]; Homo sapiens, T47D, 72 h
  IC50: 0.52 µM
[3]
  IC50: 0.007 µM
[4]; Homo sapiens, A549, 72 h
  IC50: 0.59 µM
[5]; Homo sapiens, BT-549, 72 h
  IC50: 2 µM

## COc1cc(-c2ccc3ncc(C(C)=O)c(N4CCC(CN5CCCC5)CC4)c3c2)cc(Cl)c1O [Example 321, 1-{6-(3-Chloro-4-hydroxy-5-methoxyphenyl)-4-[4-(pyrrolidin-1-ylmethyl)piperidin-1-yl]quinolin-3-yl}ethanone]
[1]; Homo sapiens, HT1197, 72 h
  IC50: 5.1 µM
[2]; Homo sapiens, T47D, 72 h
  IC50: 0.19 µM
[3]
  IC50: 0.0027 µM
[4]; Homo sapiens, A549, 72 h
  IC50: 0.18 µM
[5]; Homo sapiens, BT-549, 72 h
  IC50: 0.29 µM

## COc1cc(-c2ccc3ncc(C(=O)C4CC4)c(N[C@H]4CC[C@H](CN(C)C)CC4)c3c2)cc(Cl)c1O [Example 316]
[1]; Homo sapiens, HT1197, 72 h
  IC50: 6.3 µM
[2]; Homo sapiens, T47D, 72 h
  IC50: 0.5 µM
[3]
  IC50: 0.011 µM
[4]; Homo sapiens, A549, 72 h
  IC50: 0.32 µM
[5]; Homo sapiens, BT-549, 72 h
  IC50: 1.3 µM

## CC(C)C(=O)c1cnc2ccc(-c3cc(Cl)c(O)c(Cl)c3)cc2c1N[C@H]1CC[C@H](N)CC1 [Example 225(a), 1-{4-[trans-4-Aminocyclohexylamino]-6-(3,5-dichloro-4-hydroxyphenyl)quinolin-3-yl}-2-methylpropan-1-one]
[1]; Homo sapiens, HT1197, 72 h
  IC50: 2 µM
[2]; Homo sapiens, T47D, 72 h
  IC50: 0.073 µM
[3]
  IC50: 0.0025 µM
[4]; Homo sapiens, A549, 72 h
  IC50: 0.43 µM
[5]; Homo sapiens, BT-549, 72 h
  IC50: 0.18 µM

## COc1cc(-c2ccc3ncc(C(=O)C4CC4)c(Nc4ccc(CN(C)C)cc4)c3c2)cc(Cl)c1O [Example 339]
[1]; Homo sapiens, HT1197, 72 h
  IC50: 1.9 µM
[2]; Homo sapiens, T47D, 72 h
  IC50: 0.15 µM
[3]
  IC50: 0.004 µM
[4]; Homo sapiens, A549, 72 h
  IC50: 0.19 µM
[5]; Homo sapiens, BT-549, 72 h
  IC50: 0.49 µM

## CC(C)C(=O)c1cnc2ccc(-c3cc(F)c(O)c(F)c3)cc2c1N[C@H]1CC[C@H](N)CC1 [Example 214, 1-{4-[trans-4-Aminocyclohexylamino]-6-(3,5-difluoro-4-hydroxyphenyl)quinolin-3-yl}-2-methylpropan-1-one]
[1]; Homo sapiens, HT1197, 72 h
  IC50: 1.4 µM
[2]; Homo sapiens, T47D, 72 h
  IC50: 0.048 µM
[3]
  IC50: 0.043 µM
[4]; Homo sapiens, A549, 72 h
  IC50: 0.65 µM
[5]; Homo sapiens, BT-549, 72 h
  IC50: 0.084 µM

## CN1CCN(C2CCN(c3c(C(=O)C4CC4)cnc4ccc(-c5cc(F)c(O)c(Cl)c5)cc34)CC2)CC1 [Example 349, {6-(3-Chloro-5-fluoro-4-hydroxyphenyl)-4-[4-(4-methylpiperazin-1-yl)piperidin-1-yl]quinolin-3-yl}(cyclopropyl)methanone]
[1]; Homo sapiens, HT1197, 72 h
  IC50: 5.8 µM
[2]; Homo sapiens, T47D, 72 h
  IC50: 0.49 µM
[3]
  IC50: 0.0046 µM
[4]; Homo sapiens, A549, 72 h
  IC50: 0.98 µM
[5]; Homo sapiens, BT-549, 72 h
  IC50: 0.91 µM

## COc1cc(-c2ccc3ncc(C(C)=O)c(N4CCC(CN(C)C)CC4)c3c2)cc(Cl)c1O [Example 305, 1-[6-(3-chloro-4-hydroxy-5-methoxyphenyl)-4-{4-[(dimethylamino)methyl]piperidin-1-yl}quinolin-3-yl]ethanone]
[1]; Homo sapiens, HT1197, 72 h
  IC50: 3.6 µM
[2]; Homo sapiens, T47D, 72 h
  IC50: 0.21 µM
[3]
  IC50: 0.0022 µM
[4]; Homo sapiens, A549, 72 h
  IC50: 0.14 µM
[5]; Homo sapiens, BT-549, 72 h
  IC50: 0.33 µM

## N[C@H]1CC[C@H](Nc2c(C(=O)C3CC3)cnc3ccc(-c4cc(Cl)c(O)c(Cl)c4)cc23)CC1 [Example 157(a), {4-[trans-4-Aminocyclohexylamino]-6-(3,5-dichloro-4-hydroxyphenyl)quinolin-3-yl}(cyclopropyl)methanone]
[1]; Homo sapiens, HT1197, 72 h
  IC50: 3.7 µM
[2]; Homo sapiens, T47D, 72 h
  IC50: 0.15 µM
[3]
  IC50: 0.0076 µM
[4]; Homo sapiens, A549, 72 h
  IC50: 0.57 µM
[5]; Homo sapiens, BT-549, 72 h
  IC50: 0.33 µM

## COc1cc(-c2ccc3ncc(C(=O)C4CC4)c(N[C@H]4CC[C@H](N(C)C)CC4)c3c2)cc(Cl)c1O [Example 255, {6-(3-Chloro-4-hydroxy-5-methoxyphenyl)-4-[trans-4-(dimethylamino)cyclohexylamino]quinolin-3-yl}(cyclopropyl)methanone]
[1]; Homo sapiens, HT1197, 72 h
  IC50: 1.9 µM
[2]; Homo sapiens, T47D, 72 h
  IC50: 0.28 µM
[3]
  IC50: 0.0019 µM
[4]; Homo sapiens, A549, 72 h
  IC50: 0.18 µM
[5]; Homo sapiens, BT-549, 72 h
  IC50: 0.64 µM

## CC(C1CCN(c2c(S(C)(=O)=O)cnc3ccc(-c4ccc(O)c(Cl)c4)cc23)CC1)N(C)C (centres unmarked) [Example 246, 2-Chloro-4-[4-{4-[1-(dimethylamino)ethyl]piperidin-1-yl}-3-(methylsulfonyl)quinolin-6-yl]phenol]
[1]; Homo sapiens, HT1197, 72 h
  IC50: 1.2 µM
[2]; Homo sapiens, T47D, 72 h
  IC50: 0.18 µM
[3]
  IC50: 0.01 µM
[4]; Homo sapiens, A549, 72 h
  IC50: 0.35 µM
[5]; Homo sapiens, BT-549, 72 h
  IC50: 0.72 µM

## N[C@H]1CC[C@H](Nc2c(C(=O)C3CC3)cnc3ccc(-c4cc(Cl)c(O)c(Cl)c4)cc23)CC1 [Example 157(b), {4-[trans-4-Aminocyclohexylamino]-6-(3,5-dichloro-4-hydroxyphenyl)quinolin-3-yl}(cyclopropyl)methanone dihydrochloride]
[1]; dihydrochloride
  IC50: 4.7 µM
[2]; dihydrochloride
  IC50: 0.096 µM
[3]; dihydrochloride
  IC50: 0.003 µM
[4]; dihydrochloride
  IC50: 0.3 µM
[5]; dihydrochloride
  IC50: 0.31 µM

## CN(C)[C@H]1CC[C@H](Nc2c(C(=O)C3CC3)cnc3ccc(-c4cc(Cl)c(O)c(Cl)c4)cc23)CC1 [Example 263, Cyclopropyl{6-(3,5-dichloro-4-hydroxyphenyl)-4-[trans-4-(dimethylamino)cyclohexylamino]quinolin-3-yl}methanone]
[1]; Homo sapiens, HT1197, 72 h
  IC50: 1.2 µM
[2]; Homo sapiens, T47D, 72 h
  IC50: 0.13 µM
[3]
  IC50: 0.0017 µM
[4]; Homo sapiens, A549, 72 h
  IC50: 0.2 µM
[5]; Homo sapiens, BT-549, 72 h
  IC50: 0.41 µM

## COc1cc(-c2ccc3ncc(C(=O)C4CC4)c(N4CCC(C(C)N(C)C)CC4)c3c2)cc(Cl)c1O (centres unmarked) [Example 250, [6-(3-Chloro-4-hydroxy-5-methoxyphenyl)-4-{4-[1-(dimethylamino)ethyl]piperidin-1-yl}quinolin-3-yl](cyclopropyl)methanone]
[1]; Homo sapiens, HT1197, 72 h
  IC50: 1.7 µM
[2]; Homo sapiens, T47D, 72 h
  IC50: 0.16 µM
[3]
  IC50: 0.0013 µM
[4]; Homo sapiens, A549, 72 h
  IC50: 0.11 µM
[5]; Homo sapiens, BT-549, 72 h
  IC50: 0.61 µM

## COc1cc(-c2ccc3ncc(C(=O)C4CC4)c(NC45CC6CC(CC(N)(C6)C4)C5)c3c2)cc(Cl)c1O [Example 309, {6-(3-Chloro-4-hydroxy-5-methoxyphenyl)-4-[(3-amino)adamantylamino]quinolin-3-yl}(cyclopropyl)methanone]
[1]; Homo sapiens, HT1197, 72 h
  IC50: 0.5 µM
[2]; Homo sapiens, T47D, 72 h
  IC50: 0.32 µM
[3]
  IC50: 0.0087 µM
[4]; Homo sapiens, A549, 72 h
  IC50: 0.28 µM
[5]; Homo sapiens, BT-549, 72 h
  IC50: 0.49 µM

## N#Cc1ncc(-c2ccc3ncc(C(=O)C4CC4)c(N[C@H]4CC[C@H](N)CC4)c3c2)cn1 [Example 96, 5-{4-[trans-4-Aminocyclohexylamino]-3-(cyclopropanecarbonyl)quinolin-6-yl}pyrimidine-2-carbonitrile]
[1]; Homo sapiens, HT1197, 72 h
  IC50: 1.5 µM
[2]; Homo sapiens, T47D, 72 h
  IC50: 0.29 µM
[3]
  IC50: 0.0024 µM
[4]; Homo sapiens, A549, 72 h
  IC50: 1.3 µM
[5]; Homo sapiens, BT-549, 72 h
  IC50: 0.93 µM

## COc1cc(-c2ccc3ncc(C(=O)C4CC4)c(N[C@H]4CC[C@H](N(C)C)CC4)c3c2)ccc1O [Example 266, Cyclopropyl(4-((trans)-4-(dimethylamino)cyclohexylamino)-6-(4-hydroxy-3-methoxyphenyl)quinolin-3-yl)methanone]
[1]; Homo sapiens, HT1197, 72 h
  IC50: 3 µM
[2]; Homo sapiens, T47D, 72 h
  IC50: 0.29 µM
[3]
  IC50: 0.0016 µM
[4]; Homo sapiens, A549, 72 h
  IC50: 0.37 µM
[5]; Homo sapiens, BT-549, 72 h
  IC50: 0.94 µM

## COc1cc(-c2ccc3ncc(C(=O)C4CC4)c(NCC4CCNCC4)c3c2)cc(Cl)c1O [Example 243]
[1]; Homo sapiens, HT1197, 72 h
  IC50: 7.3 µM
[2]; Homo sapiens, T47D, 72 h
  IC50: 0.33 µM
[3]
  IC50: 0.0044 µM
[4]; Homo sapiens, A549, 72 h
  IC50: 0.62 µM
[5]; Homo sapiens, BT-549, 72 h
  IC50: 1.8 µM

## CC(C)C(=O)c1cnc2ccc(-c3ccc(C#N)nc3)cc2c1N[C@H]1CC[C@H](N)CC1 [Example 108, 5-{4-[trans-4-Aminocyclohexylamino]-3-isobutyrylquinolin-6-yl}picolinonitrile]
[1]; Homo sapiens, HT1197, 72 h
  IC50: 15 µM
[2]; Homo sapiens, T47D, 72 h
  IC50: 6.1 µM
[3]
  IC50: 0.03 µM
[4]; Homo sapiens, A549, 72 h
  IC50: 13 µM
[5]; Homo sapiens, BT-549, 72 h
  IC50: 14 µM
